# Patent publication US5240961A, “Method of treating reduced insulin-like growth factor and bone loss associated with aging” (priority 1992, dated 1993)
# Several values for one entry are separate records, joined by “and”; a condition that tells them apart may be missing. Equal values may be shown once. Read-outs that look alike come from different tables or passages of the source.
# Key:
# [1] = Serum carnitine levels in young mice fed L-carnitine; type: in vivo, mouse (BALB/c); details: mouse, po, 50 mg/kg/day, 50 mg/kg/day oral
# Protocol: (§1) The present invention is further explained by the following examples which should not be construed by way of limiting the scope of the present invention. In the following examples, serum carnitine levels were determined by the method of R. Parvin et al., Anal. Biochem., vol. 79 (1979) pp. 190-201. Serum IGF-1 concentrations were measured by immunoradiometric assay, for example, by IRMA Kit available from Diagnostic Systems Laboratories, Inc., Webster, Texas. Serum osteocalcin levels were measured according to the method of Grunaberg et al., Meth. Enzymology, vol 107 (1984) 516, and which is embodied in an osteocalcin kit available from Biomedical Technologies, Inc., Stoughton, Mass. All mice used in the animal studies were BALB/c strain which is commercially available.
# Similar tests were performed on six young mice, i.e., 2 months 5 months of age. One group (n=3) was fed a diet with L-carnitine supplementation for three months, the other (n=3) was fed normal, unsupplemented feed (control). Each mouse in the test group was fed a daily oral dose of L-carnitine of about 50 mg/kg of body weight. Mouse blood was sampled prior to beginning of the trial (pretreatment) i.e., at two months of age, and at 5 months of age, and was evaluated for serum osteocalcin and carnitine levels.
# [2] = Serum carnitine after oral L-carnitine in healthy adults over 60 (Example 4); type: in vivo, human; details: human, serum, po, 2 g/day, individual subjects, 2 g/day oral, three months
# Protocol: as §1
# (§2) Seven adults from Example 3 agreed to receive a daily dosage of L-carnitine of 2 g/day, self-administered orally, for three months. Doses were administered four times daily, and each dose consisted of two 250 mg tablets. Of the seven individuals, two individuals dropped out of the study due to unrelated illness; thus, five remained in the study to completion. The following were evaluated by pretreatment and posttreatment comparisons: serum carnitine and serum IGF-1 by known methods, and bone mineral contents by bone scan of thoracic region, i.e., thoracic vertebrae, on a NORLAND scanner.
# [3] = test system: serum carnitine; assay: as above; type: in vivo, human; details: individual subjects, 2 g/day oral, three months; for concentration: 131400 min
# Protocol: as §1, §2
# [4] = Serum carnitine after oral L-carnitine, double-blind study in patients over 60 (Example 5); type: in vivo, human; details: human, serum, po, 2 g/day
# Protocol: as §1
# (§3) Nineteen patients (over age 60) were enrolled in a preliminary double-blindstudy to establish the effect of oral L-carnitine treatment on serum IGF-1 and osteocalcin levels. Baseline, i.e., pretreatment, levels of serum IGF-1, osteocalcin and carnitine were measured by known methods. The patients were divided into two groups, control (n=9; subjects 001-009 in Table 5 below) and treatment (n=10; subjects 010-019 in Table 5 below). The treatment group received a daily dosage of 2 g of L-carnitine orally, self-administered, in four separate doses of two 250 mg tablets taken four times per day, for twelve weeks. The control group were given placebo, e.g., simple sugar. Serum samples were drawn every four weeks, and serum carnitine, IGF-1 and osteocalcin were determined.
# [5] = test system: serum carnitine; assay: as above; type: in vivo, human; details: individual subjects 010-019, 2 g/day oral
# Protocol: as §1, §3
# [6] = read-out: Carnitine, Free, posttreatment
# [7] = read-out: Carnitine, Total, posttreatment
structure (smiles),measurement,setting,value
C[N+](C)(C)C[C@H](O)CC(=O)[O-] [L-carnitine],concentration at 2190 h,"[1]; read-out: Serum Carnitine, Free",60.2 µM
same,concentration at 2190 h,"[1]; read-out: Serum Carnitine, Total",84.2 µM
same,concentration at 2190 h,[2]; [6],77.2 µM
same,concentration at 2190 h,[2]; [7],102 µM
same,concentration,[3]; [6],57 µM and 55.4 µM and 38.6 µM and 44.8 µM
same,concentration,[3]; [7],70.7 µM and 68.9 µM and 54.7 µM and 73.4 µM
same,"Carnitine E/F, posttreatment",[3]; ratio esterified/free,0.32 and 0.24 and 0.42 and 0.64
same,concentration at 1344 h,"[4]; individual subjects 010-019, 2 g/day oral, 8 weeks, read-out: Serum carnitine, Free",65.4 µM
same,concentration at 1344 h,"[4]; individual subjects 010-019, 2 g/day oral, 8 weeks, read-out: Serum carnitine, Total",88 µM
same,concentration at 2016 h,"[4]; individual subjects 010-019, 2 g/day oral, 12 weeks, read-out: Serum carnitine, Free",72.6 µM
same,concentration at 2016 h,"[4]; individual subjects 010-019, 2 g/day oral, 12 weeks, read-out: Serum carnitine, Total",101 µM
same,concentration at 1344 h,"[4]; treatment group average, eight weeks, read-out: average total carnitine",75.6 µM
same,concentration at 672 h,"[4]; treatment group average, four weeks, read-out: average total carnitine",78.4 µM
same,concentration at 2016 h,"[4]; treatment group average, twelve weeks, read-out: average total carnitine",81.5 µM
same,concentration,"[5]; 4 weeks, 40320 min, read-out: Serum carnitine, Free",54.4 µM and 61.6 µM and 36.6 µM and 66.6 µM and 67.4 µM and 52 µM and 67.2 µM and 40.4 µM and 61.2 µM and 85 µM
same,concentration,"[5]; 4 weeks, 40320 min, read-out: Serum carnitine, Total",71.6 µM and 72.5 µM and 52.4 µM and 80.3 µM and 120 µM and 67 µM and 84.4 µM and 54.3 µM and 73 µM and 108 µM
same,concentration,"[5]; 8 weeks, 80640 min, read-out: Serum carnitine, Free",58.6 µM and 52.6 µM and 65.2 µM and 74.6 µM and 57 µM and 67.4 µM and 39.4 µM and 61.2 µM
same,concentration,"[5]; 8 weeks, 80640 min, read-out: Serum carnitine, Total",76.6 µM and 64.8 µM and 72.5 µM and 91.7 µM and 67.9 µM and 83.4 µM and 51.5 µM and 83.9 µM
same,concentration,"[5]; 12 weeks, 120960 min, read-out: Serum carnitine, Free",61 µM and 49.6 µM and 70 µM and 55.8 µM and 69.6 µM
same,concentration,"[5]; 12 weeks, 120960 min, read-out: Serum carnitine, Total",79.3 µM and 62 µM and 75.7 µM and 70.2 µM and 94.4 µM
